Consider 53 compounds from PubChem BioAssay AID686969 (The Scripps Research Institute Molecular Screening Center, 2013).

Active and inactive are the calls of the source. The rule behind the calls is not given here.

This experiment deals with methionyl-tRNA synthetase (Trypanosoma brucei). Nature of the experiment: T. brucei MetRS inhibitors, orthogonal readout, late-stage follow-up, orthogonal assay for T. brucei MetRS inhibitor project, biochemical, fluorescence polarization, dose response (AID 686969). For orientation: Fluorescence polarisation rises when a labelled molecule tumbles more slowly, as on binding a larger partner.
For orientation: IC50 means the point on the concentration scale where inhibition reaches its midpoint. As to `O=C(NCc1nc2ccccc2[nH]1)C1=C[C@@H](c2ccccc2)C[C@@H](OCc2ccc(CO)cc2)O1`, the IC50 is 2210 nM. With `CC(C)OCCCN1CC(=O)N2C(c3cccc([N+](=O)[O-])c3)c3[nH]c4ccccc4c3C[C@H]2C1=O` (stereo partly drawn), the IC50 was 1490 nM. As to `O=C(CCC(=O)Nc1cccc([N+](=O)[O-])c1)NN=Cc1cccs1`, the IC50 was 8370 nM. Regarding `O=C(CN1CCSC1=NCc1ccccc1)c1ccc(Cl)c(Cl)c1`, the IC50 is 3910 nM. With `COc1ccc2[nH]c3nc(SCC(=O)Nc4ccc5c(c4)OCO5)nnc3c2c1`, the IC50 is 926 nM. With `O=C(NCc1nc2ccccc2[nH]1)C1=C[C@H](c2csc3ccccc23)C[C@H](OCCCCO)O1`, the IC50 was 1790 nM. Consider `COc1ccc(OCC(O)CNC(=O)Nc2ccc(Cl)cc2)cc1` (stereo not drawn), for which the IC50 was 7550 nM. Take `O=C1CC(N(CCc2ccccc2)C(=S)Nc2ccccc2)C(=O)N1c1ccc(Br)cc1` (stereo not drawn): the IC50 was 566 nM. For the compound `CCCCCCCCCC1NC(C(=O)O)Cc2c1[nH]c1ccccc21` (stereo not drawn), the IC50 is 4270 nM. Take `CC(=O)c1ccc(N2CCN(C(=O)CCCn3c(=O)[nH]c4ccc(Br)cc4c3=O)CC2)cc1`: the IC50 is 879 nM. `CN(Cc1cc(Cl)cc(Cl)c1)[C@H]1C[C@H]2c3[nH]c4ccccc4c3CCN2C(=O)[C@H]1CO`: the IC50 was 922 nM. Turning to `Cc1[nH]c2ccc(Br)cc2c(=O)c1CN1CCCCCC1`, the IC50 entry is “inactive”. Next, `COc1cccc(NC(=O)CSc2nnc3c(n2)[nH]c2ccc(C)cc23)c1`: 75.1 nM; `CCO[C@@H]1OC(C(=O)NCc2nc3ccccc3[nH]2)=C[C@H](c2ccc(Br)cc2)[C@H]1CCCO`: “inactive”; `Clc1ccc(OCCSCc2nc3ccccc3[nH]2)cc1`: 9230 nM. The value for `O=C(NCc1nc2ccccc2[nH]1)C1=C[C@@H](C2CC2)C[C@@H](OCc2ccc(CO)cc2)O1` was 2660 nM; that for `O=C(NCc1nc2ccccc2[nH]1)C1=C[C@H](c2ccc3c(c2)OCO3)C[C@H](OCCCCO)O1` was 6220 nM.

Consider `Oc1c(Cl)cc(Cl)cc1CNc1nc2ccccc2[nH]1`, for which the IC50 is 1770 nM.

`O=C(Nc1ccc(F)c(Cl)c1)C1CC(=O)n2c(nc3ccccc32)N1` (stereo not drawn): the IC50 was 2910 nM. Consider `Cc1ccc(NC(=O)CN(C)C(=O)CCSc2ccc(F)cc2)cc1`, for which the IC50 is 5730 nM. Next, `O=C(CC(=O)Nc1cccc(Cl)c1)NN=Cc1ccccc1`: 6030 nM.

On to `O=C1CC(SCc2nc3ccccc3[nH]2)C(=O)N1c1cccc(Cl)c1` (stereo not drawn), for which the IC50 result was “inactive”. For the compound `CN(CC(=O)Nc1ccc(Cl)cc1)C(=O)c1ccc(-n2cncn2)c([N+](=O)[O-])c1`, the IC50 was 1910 nM. As for `O=C(NCc1nc2ccccc2[nH]1)C1=C[C@@H](c2csc3ccccc23)C[C@@H](OCCCCO)O1`, the IC50 is 4650 nM. Next, `CCOC(=O)N1CCC(Nc2c(Nc3ccc(F)cc3)c(=O)c2=O)CC1`: 7300 nM; `O=C(NCc1nc2ccccc2[nH]1)C1=C[C@@H](c2ccc3c(c2)OCO3)C[C@@H](OCCCCO)O1`: 2030 nM; `O=C(NCc1nc2ccccc2[nH]1)C1=C[C@@H](c2ccc(Br)cc2)C[C@@H](OCc2ccc(CO)cc2)O1`: 2030 nM. Turning to `O=C(NCc1nc2ccccc2[nH]1)C1=C[C@H](c2ccc(Br)cc2)C[C@H](OCc2ccc(CO)cc2)O1`, the IC50 is 3520 nM.

Consider `O=C(Cn1cnc2ccccc21)Nc1cccc([N+](=O)[O-])c1`, for which the IC50 was 2800 nM.

`O=C(Cn1cc(C(=O)C(=O)N2CCOCC2)c2ccccc21)Nc1cccc(C(F)(F)F)c1`: the IC50 is 292 nM. In the case of `C[C@H](O)[C@@H]1C(=O)N2CCc3c([nH]c4ccccc34)[C@@H]2C[C@@H]1N(C)Cc1ccc2c(c1)OCO2`, the IC50 was 439 nM. Next, `O=C(NCc1nc2ccccc2[nH]1)C1=C[C@H](c2ccc(Br)cc2)C[C@H](OCCCCO)O1`: 3110 nM. As for `CCO[C@H]1OC(C(=O)NCc2nc3ccccc3[nH]2)=C[C@@H](c2ccc(Br)cc2)[C@@H]1CCCO`, the IC50 is 9390 nM. As to `O=C(NCCc1nc2ccccc2[nH]1)c1ccc(Cl)c([N+](=O)[O-])c1`, the IC50 was 331 nM.

For `CC(CC(=O)Nc1cccc(Br)c1)=NNC(=O)c1ccc(O)cc1O`, the IC50 is 2360 nM.

For `O=C(CC=NOCc1ccc([N+](=O)[O-])cc1)Nc1ccc(Cl)cc1`, the IC50 was 2870 nM. Consider `CC(C)(C)[C@H]1C=C(C(=O)NCc2nc3ccccc3[nH]2)O[C@@H](OCc2ccc(CO)cc2)C1`, for which the IC50 was 5390 nM. With `O=C(NNC(=O)c1ccc(-n2cncn2)c([N+](=O)[O-])c1)c1ccc(Cl)cc1`, the IC50 was 7410 nM. Consider `O=C(NCc1nc2ccccc2[nH]1)C1=C[C@@H](c2ccc(Br)cc2)C[C@@H](OCCCCO)O1`, for which the IC50 was 1140 nM. The value for `Clc1ccc(-c2nnc(SCc3nc4ccccc4[nH]3)o2)c(Cl)c1` was 933 nM. Next, `O=C(NNC(=O)c1cc(-c2ccc(Cl)c(Cl)c2)nc2ccccc12)Nc1ccccc1`: 1490 nM; `COc1ccccc1NS(=O)(=O)c1cccc(NC(=O)Nc2ccccc2)c1`: 600 nM. Take `COc1ccccc1-n1c(SCC(=O)Nc2ccc(Cl)cc2)nc(O)c(Cc2ccccc2)c1=O`: the IC50 is 4590 nM.

On to `O=C(NCc1nc2ccccc2[nH]1)C1=C[C@H](C2CC2)C[C@H](OCc2ccc(CO)cc2)O1`, for which the IC50 is 8110 nM. In the case of `O=C(NCc1nc2ccccc2[nH]1)C1=C[C@H](c2ccccc2)C[C@H](OCc2ccc(CO)cc2)O1`, the IC50 entry was “inactive”. As for `O=C1[C@@H]2Cc3c([nH]c4ccccc34)C(c3cccc([N+](=O)[O-])c3)N2C(=O)CN1CCCO` (stereo partly drawn), the IC50 is 933 nM. The value for `CC(=O)c1c[nH]c(C(=O)NCc2cccc(C(F)(F)F)c2)c1` was 2220 nM; that for `Brc1cnc2nc(SCc3nc4ccccc4[nH]3)[nH]c2c1` was 4270 nM; that for `O=C(C[C@H]1C(=O)N(Cc2ccccc2)C[C@@H]1c1ccc(Br)cc1)Nc1ccc(Br)cc1` was 2970 nM. Next, `CC(C)(C)[C@@H]1C=C(C(=O)NCc2nc3ccccc3[nH]2)O[C@H](OCc2ccc(CO)cc2)C1`: 8120 nM. Next, `O=C(N/C(=C\c1cccnc1)c1nc2ccccc2[nH]1)c1cccc(Br)c1`: 5650 nM.

Consider `CN1CC(=O)N2C(c3cccc([N+](=O)[O-])c3)c3[nH]c4ccccc4c3C[C@H]2C1=O` (stereo partly drawn), for which the IC50 is 717 nM. Turning to `O=C(CC=NOCc1ccc([N+](=O)[O-])cc1)Nc1ccc(Br)cc1`, the IC50 was 1310 nM.
